# According to patent US9321808B2, “Homo- and heterodimeric SMAC mimetic compounds as apoptosis inducers” (BioNTech AG, priority 2012, dated 2016):
# Where two headings read alike, the source gives them in different places.
# Legend:
# [1] = target: T1, human XIAP BIR3 domain (Homo sapiens, UniProt P98170); experiment: Fluorescence polarization competitive binding, XIAP BIR3; conditions: displacement of FITC-SMAC probe from XIAP BIR3-His-tag (60 nM); average of three independent measurements
# T1 construct: human XIAP BIR3 domain from residue 241 to 356; made in house; host or cells: Escherichia coli BL21
# Procedure: (§1) Data were analyzed using Prism 4.0 software (Graphpad Software).
# [2] = target: T2, human XIAP linker-BIR2-BIR3 (Homo sapiens, UniProt P98170); experiment: Fluorescence polarization competitive binding, XIAP linker-BIR2-BIR3; conditions: displacement of SMAC-1F probe (1 nM) from XIAP linker-BIR2-BIR3-His-tag (3 nM); average of three independent measurements
# T2 construct: human XIAP from residue 124 to 356 (linker-BIR2-BIR3); made in house; host or cells: Escherichia coli BL21
# Procedure: as §1
# [3] = target: T3, cIAP1-BIR3 (Homo sapiens, UniProt Q13490); experiment: Fluorescence polarization binding, cIAP1 BIR3; conditions: displacement of fluorescent probe (2 nM) from cIAP1-BIR3 (10 nM); average of three independent measurements; read-out: cIAP1 IC50(av)
# T3 construct: 6xHis (C); made in house; host or cells: Escherichia coli BL21(DE3)
# Procedure: (§2) The plasmids were used to transform Escherichia coli strain BL21(DE3). The recombinant proteins were purified using Ni-NTA (His-trap FFcrude, Ge-Healthcare), followed by gel filtration (Superdex 200, Ge-Healthcare). The recombinant proteins were eluted in 20 mM Tris pH 8.0, 250 mM NaCl and 10 mM DTT. Aliquoted proteins were conserved at −80° C.
# (§3) The fluorescently-labelled Smac peptide (AbuRPF-K(5-Fam)-N1-12, final concentration of 2 nM), and increasing concentrations of cIAP1- and cIAP2-BIR3 from 0 to 20 μM, were added to an assay buffer consisting of 100 mM potassium phosphate, pH 7.5, 100 μg/ml bovine γ-globulin, 0.02% sodium azide. […] All experiments were performed in black, flat-bottom 96-well microplates (Greiner bio-one). 4-substituted azabicyclo[5.3.0]alkane Smac-mimetics were evaluated for their ability to displace the fluorescent probe from recombinant protein. […] After 15 minutes mixing on a shaker, and 3 hours incubation at room temperature, fluorescent polarization was measured on the Ultra plate reader (Tecan).
# [4] = target: T4, cIAP2-BIR3 (Homo sapiens, UniProt Q13489); experiment: Fluorescence polarization binding, cIAP2 BIR3
# T4 construct: 6xHis (C); made in house; host or cells: Escherichia coli BL21(DE3)
# Procedure: as §2, §3
# [5] = system: MDA-MB-231 (breast epithelial adenocarcinoma); experiment: Standalone cytotoxicity, MTT assay, MDA-MB-231; type: cell-based, human; conditions: reported as activity range, read-out: MDA-MB-231 IC50 (μM ± standard Deviation)
# Procedure: (§4) Human cell lines MDA-MB-231 (breast epithelial adenocarcinoma), HL-60 (promieloblast cells) and PC-3 (prostate adenocarcinoma cells) were purchased from Istituto Zooprofilattico di Brescia (www.bs.izs.it). Reagents for cell culture were purchased from Sigma, unless otherwise indicated. Cells were grown on Plastic Petri dishes (Falcon) in RPMI 1640 medium supplemented with 2 mM L-glutamine, Penicillin (100 U/mL)/Streptomicin (100 μg/mL), 10% Fetal Bovine Serum. A sub-cultivation ratio of 1:4 was used. Cells were maintained at 37° C. in an atmosphere of 95% air and 5% CO2.
# (§5) Cells were seeded in 96-well flat bottom cell culture plates at a density of 5000 cells/well in 100 μL of culture medium. HL-60 cells were immediately stimulated with the indicated compounds for 96 hours in the incubator. MDA-MB-231 and PC-3 cells were allowed to adhere for 24 hours. prior to be exposed to the compounds for 96 hours in the incubator. Cells were exposed to the following concentrations of the compounds: 50 nM, 100 nM, 200 nM, 500 nM, 1 μM, 5 μM, 10 μM, 50 μM and 100 μM. Each point was done in triplicate. The cellular growth inhibitory effect of our compounds was evaluated using the MTT assay (Sigma). After 96 hours of treatment, 10 μL of MTT reagent solution (5 mg of MTT powder/mL diluted in Phosphate Buffer Salt saline solution) were added in each well and allowed to react for 3 hours in the incubator. After 3 hours cells were solubilized in Lysis Buffer (10% SDS/0.1% HCl in water, 100 μL for each well) for 24 hours at 37° C. Finally, the absorbance was measured at 570 nm using a multiplate reader. Absorbance values were collected and IC50 values were determined using GraphPad Prism5 software. The experiments were repeated twice.
# (§6) After 96 hours of treatment, 10 μl of MTT reagent solution (5 mg of MTT powder/ml diluted in Phosphate Buffer Salt saline solution) were added in each well and allowed to react for 3 hours in the incubator. After 3 hours cells were solubilized in Lysis Buffer (10% SDS/0.1% HCl in water, 100 μl for each well) for 24 hours at 37° C. Finally, the absorbance was measured at 570 nm using a multiplate reader. Absorbance values were collected and IC50/IC80 values were determined using GraphPad Prism5 software.
# [6] = system: IGROV-1 human ovarian carcinoma xenografted s.c.; conditions: for TVI %, tumor volume inhibition % in treated over control mice: assessed 7 days after last treatment
# Procedure: (§7) All experiments of antitumor activity were carried out using female athymic Swiss nude mice, 8-10 weeks-old (Charles River, Calco, Italy). Mice were maintained in laminar flow rooms keeping temperature and humidity constant. Mice had free access to food and water. Experiments were approved by the Ethics Committee for Animal Experimentation of the Istituto Nazionale Tumori of Milan according to institutional guidelines.
# (§8) Chem. Soc. […] The drugs were delivered i.p. in a volume of 10 ml/Kg of body weight.
# For subcutaneous (s.c.) growth, exponentially growing tumor cells (5×10^6 cells/mouse) were s.c. injected into the right flank of athymic nude mice. The tumor line was achieved by serial s.c. passages of fragments (about 2×2×6 mm) from regrowing tumors into healthy mice. Groups of five mice bearing bilateral s.c. tumors were employed. Tumor fragments were implanted on day 0 and tumor growth was followed by biweekly measurements of tumor diameters with a Vernier caliper. […] Treatment started three days after tumor implant, when tumors were just palpable. […] The toxicity of the drug treatment was determined as body weight loss and lethal toxicity. Deaths occurring in treated mice before the death of the first control mouse were ascribed to toxic effects. Student t test (two tailed) exact test was used for statistical comparison of tumor volumes in mice.
# [7] = system: HL-60 (promieloblast cells); experiment: Standalone cytotoxicity, MTT assay, HL-60; type: cell-based, human; conditions: reported as activity range, read-out: HL-60 IC50 (μM ± standard Deviation)
# Procedure: as §4
# as §5, with “The experiments were repeated twice.” left out
# as §6, with “After 3 hours cells were solubilized in Lysis Buffer (10% SDS/0.1% HCl in water, 100 μl for each well) for 24 hours at 37° C.” left out
# [8] = system: PC-3 (prostate adenocarcinoma cells); experiment: Standalone cytotoxicity, MTT assay, PC-3; type: cell-based, human; conditions: 96 hours treatment, reported as activity range, read-out: PC-3 IC50 (μM ± standard Deviation)
# Procedure: as §4
# as §5, with “The experiments were repeated twice.” left out
# as §6, with “After 3 hours cells were solubilized in Lysis Buffer (10% SDS/0.1% HCl in water, 100 μl for each well) for 24 hours at 37° C.” left out
# [9] = system: IGROV-1 human ovarian carcinoma xenografted i.p.; experiment: Ovarian tumor i.p. xenograft, survival; type: in vivo, athymic nude mice; conditions: 5 mg/kg, qdx4-5/wx2-3w, IGROV-1 i.p.
# Procedure: as §7, §8
# The IGROV-1 tumor was adapted to grow in the peritoneal cavity (i.p.) and maintained by serial i.p. passages of ascitic cells into healthy mice. In this tumor model, hemorrhagic ascites with diffuse peritoneal carcinomatosis develops and the animal eventually die. For evaluation of antitumor activity, 2.5×10^6 ascitic cells in 0.2 ml of saline were injected i.p. into mice. Locoregional administration was employed. […] For antitumor activity studies, experimental groups were inspected daily and weighed three times weekly. Prior to impending death, mice were sacrificed by cervical dislocation and day of sacrifice was considered as day of death and the median survival time (MST) was calculated for each group. Antitumor activity was assessed as T/C %, i.e., the ratio of MST in treated mice over that of control mice×100. For statistical analysis, percent survivorship over time was estimated by the Kaplan-Meier product method and compared using the log-rank test.
# Treatment started the day after tumor cell inoculation.
# [10] = displacement of fluorescent probe (2 nM) from cIAP2 (25 nM), average of three independent measurements, read-out: cIAP2 IC50(av)
# [11] = Homo sapiens, MDA-MB-231, 96 hours treatment
# [12] = Homo sapiens, HL-60, 96 hours treatment
# [13] = i.p., 5 mg/kg, qdx4-5/wx3w, IGROV-1 s.c.
# T4 sequence (Q13489 237-349): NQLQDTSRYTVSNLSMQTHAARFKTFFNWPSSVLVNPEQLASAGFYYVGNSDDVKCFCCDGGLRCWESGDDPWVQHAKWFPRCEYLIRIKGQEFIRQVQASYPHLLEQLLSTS
# T3 sequence (Q13490 251-363): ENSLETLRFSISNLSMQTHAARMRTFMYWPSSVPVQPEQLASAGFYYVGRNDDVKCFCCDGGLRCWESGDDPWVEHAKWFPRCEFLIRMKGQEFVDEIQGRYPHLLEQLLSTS
# T2 sequence (P98170 124-356): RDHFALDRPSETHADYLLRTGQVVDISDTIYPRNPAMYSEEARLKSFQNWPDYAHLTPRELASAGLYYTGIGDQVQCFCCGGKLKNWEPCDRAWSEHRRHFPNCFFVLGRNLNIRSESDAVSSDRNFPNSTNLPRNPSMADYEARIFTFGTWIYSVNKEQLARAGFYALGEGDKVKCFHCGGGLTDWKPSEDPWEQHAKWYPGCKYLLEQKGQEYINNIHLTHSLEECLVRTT
# T1 sequence (P98170 241-356): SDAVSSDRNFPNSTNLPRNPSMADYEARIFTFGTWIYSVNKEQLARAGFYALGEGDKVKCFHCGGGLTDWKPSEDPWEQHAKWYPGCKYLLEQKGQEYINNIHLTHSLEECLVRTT
smiles,measurement,setting,value
CC[C@H](NC)C(=O)N[C@@H]1C(=O)N2[C@@H](CC[C@@H]1CNC(=O)CCc1cn(CCOCCOCCOCCNC(=O)[C@@H](NC(=O)[C@@H]3CC[C@@H]4CC[C@H](CO)[C@H](NC(=O)[C@H](CC)NC)C(=O)N43)c3ccccc3)nn1)CC[C@H]2C(=O)NC(c1ccccc1)c1ccccc1 [Compound 34a],IC50,[1],0.0311 µM
same,IC50,[2],0.00011 µM
same,IC50,[3],0.0032 µM
same,IC50,[4]; [10],0.0003 µM
same,IC50,[5]; [11],10 to 50 µM
CC[C@H](NC)C(=O)N[C@@H]1C(=O)N2[C@@H](CC[C@@H]1CNCc1ccccc1)CC[C@H]2C(=O)N[C@@H](c1ccccc1)c1cn(CCCCc2ccc(CCCCn3cc([C@@H](NC(=O)[C@@H]4CC[C@@H]5CC[C@H](CNCc6ccccc6)[C@H](NC(=O)[C@H](CC)NC)C(=O)N54)c4ccccc4)nn3)cc2)nn1 [Compound 29a],IC50,[4],0.0121 µM
same,IC50,[5]; [11],< 1 µM
"CN[C@@H](C)C(=O)N[C@H]1CCCC[C@H]2CC[C@@H](C(=O)N[C@@H](c3ccccc3)c3cn(CCCCc4ccc(CCCCn5cc([C@@H](NC(=O)[C@@H]6CC[C@@H]7CCCC[C@H](NC(=O)[C@H](C)NC)C(=O)N76)c6ccccc6)nn5)cc4)nn3)N2C1=O [SM-164, reference compound]",Antitumor effect,"[6]; i.p., 5 mg/Kg, qdx5/wx3, IGROV-1 s.c.",did not display any antitumor effect
CC[C@H](NC)C(=O)N[C@@H]1C(=O)N2[C@@H](CC[C@@H]1Cn1cc(CCC(=O)NCCOCCOCCOCCNC(=O)[C@@H](NC(=O)[C@@H]3CC[C@@H]4CC[C@H](CO)[C@H](NC(=O)[C@H](CC)NC)C(=O)N43)c3ccccc3)nn1)CC[C@H]2C(=O)NC(c1ccccc1)c1ccccc1 [Compound 35a],IC50,[4],0.0004 µM
same,IC50,[5]; [11],1 to 10 µM
CC[C@H](NC)C(=O)N[C@@H]1C(=O)N2[C@@H](CC[C@@H]1CNC(=O)COCC(=O)NCCOCCOCCOCCNC(=O)[C@@H](NC(=O)[C@@H]1CC[C@@H]3CC[C@H](CO)[C@H](NC(=O)[C@H](CC)NC)C(=O)N31)c1ccccc1)CC[C@H]2C(=O)NC(c1ccccc1)c1ccccc1 [Compound 36a],IC50,[4]; [10],0.0002 µM
same,IC50,[5]; [11],1 to 10 µM
CC[C@H](NC)C(=O)N[C@@H]1C(=O)N2[C@@H](CC[C@@H]1CO)CC[C@H]2C(=O)N[C@H](C(=O)NCCCOCCOCCOCCCNC(=O)[C@@H](NC(=O)[C@@H]1CC[C@@H]2CC[C@H](CO)[C@H](NC(=O)[C@H](CC)NC)C(=O)N21)c1ccccc1)c1ccccc1 [Compound 30d],IC50,[4]; [10],0.0022 µM
same,IC50,[5]; [11],10 to 50 µM
same,IC50,[7]; [12],10 to 50 µM
same,IC50,[8]; Homo sapiens,> 50 µM
CC[C@H](NC)C(=O)N[C@@H]1C(=O)N2[C@@H](CC[C@@H]1CO)CC[C@H]2C(=O)N[C@H](C(=O)NCCCCCCCCNC(=O)[C@@H](NC(=O)[C@@H]1CC[C@@H]2CC[C@H](CO)[C@H](NC(=O)[C@H](CC)NC)C(=O)N21)c1ccccc1)c1ccccc1 [Compound 30a],IC50,[4],0.0018 µM
same,IC50,[5]; [11],< 1 µM
CC[C@H](NC)C(=O)N[C@@H]1C(=O)N2[C@@H](CC[C@@H]1CO)CC[C@H]2C(=O)N[C@H](C(=O)NCCNC(=O)CCC#CC#CCCC(=O)NCCNC(=O)[C@@H](NC(=O)[C@@H]1CC[C@@H]2CC[C@H](CO)[C@H](NC(=O)[C@H](CC)NC)C(=O)N21)c1ccccc1)c1ccccc1 [Compound 30c],IC50,[5]; [11],10 to 50 µM
CC[C@H](NC)C(=O)N[C@@H]1C(=O)N2[C@@H](CC[C@@H]1CO)CC[C@H]2C(=O)N[C@@H](c1ccccc1)c1cn(CCCCc2ccc(CCCCn3cc([C@@H](NC(=O)[C@@H]4CC[C@@H]5CC[C@H](CO)[C@H](NC(=O)[C@H](CC)NC)C(=O)N54)c4ccccc4)nn3)cc2)nn1 [Compound 28a],IC50,[4],0.0025 µM
same,IC50,[5]; [11],< 1 µM
same,IC50,[7]; [12],< 1 µM
same,IC50,[8]; Homo sapiens,> 50 µM
same,"MST, median survival time",[9],36 days
same,Range of the days of death,[9],28 to 56 days
same,Tolerability,"[6]; i.p., 5 mg/Kg, qdx5/wx3",well tolerated
same,"Tox, dead/treated mice","[6]; i.p., 5 mg/kg, qdx4-5/wx3w",0/4
same,"TVI %, tumor volume inhibition % in treated over control mice",[6]; [13],66%
same,"BWL %, body weight loss % induced by treatment","[6]; i.p., 5 mg/kg, qdx4-5/wx3w, the highest change is reported",2%
"CN[C@@H](C)C(=O)N[C@H]1CCCC[C@H]2CC[C@@H](C(=O)N[C@@H](c3ccccc3)c3cn(CCCCc4ccc(CCCCn5cc([C@@H](NC(=O)[C@@H]6CC[C@@H]7CCCC[C@H](NC(=O)[C@H](C)NC)C(=O)N76)c6ccccc6)nn5)cc4)nn3)N2C1=O [SM164, reference compound]",IC50,[3],0.00046 µM
same,IC50,[5]; 96 hours treatment,< 1 µM
same,IC50,[7]; 96 hours treatment,< 1 µM
same,IC50,[8],10 to 50 µM
same,"MST, median survival time",[9],37 days
same,Range of the days of death,[9],24 to 49 days
same,"TVI %, tumor volume inhibition % in treated over control mice",[6]; [13],0%
same,"BWL %, body weight loss % induced by treatment","[6]; mouse, in vivo, ip, 5 mg/kg",5%
